Reference: patent US10131652B2, “Pyrimidinyloxy benzene derivatives as herbicides” (E. I. DU PONT DE NEMOURS AND COMPANY, priority 2014, dated 2018)
Read-outs that look alike come from different tables or passages of the source.

Experiments:
Experiment in all cases: Test E pre-/postemergence plant response
Assay type in all cases: in vivo
[1] = system: canarygrass (Phalaris minor); conditions: scale 0 to 100, read-out: Plant response rating, Canarygrass; for pest or weed control at 16 g/ha: 16 g ai/ha; for pest or weed control at 31 g/ha: 31 g ai/ha; for pest or weed control at 62 g/ha: 62 g ai/ha; for pest or weed control at 125 g/ha: 125 g ai/ha
Method in brief: (§1)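 Visual scores on a 0–100 scale (100 = complete control) were assigned against untreated controls 7–21 days after treatment in a controlled environment. Compounds, formulated with solvent plus surfactant, were applied to pre-emergence silt-loam sowings or to 1- to 4-leaf plants (2–18 cm) in potting medium.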

[2] = system: winter barley (Hordeum vulgare); conditions: scale 0 to 100, read-out: Plant response rating, Barley, Winter; for plant injury at 16 g/ha: 16 g ai/ha; for plant injury at 31 g/ha: 31 g ai/ha; for plant injury at 62 g/ha: 62 g ai/ha; for plant injury at 125 g/ha: 125 g ai/ha
Method in brief: as §1

[3] = system: blackgrass (Alopecurus myosuroides); conditions: scale 0 to 100, read-out: Plant response rating, Blackgrass; for pest or weed control at 16 g/ha: 16 g ai/ha; for pest or weed control at 31 g/ha: 31 g ai/ha; for pest or weed control at 62 g/ha: 62 g ai/ha; for pest or weed control at 125 g/ha: 125 g ai/ha
Method in brief: as §1

[4] = system: wild radish (Raphanus raphanistrum); conditions: scale 0 to 100, read-out: Plant response rating, Radish, Wild; for pest or weed control at 16 g/ha: 16 g ai/ha; for pest or weed control at 31 g/ha: 31 g ai/ha; for pest or weed control at 62 g/ha: 62 g ai/ha; for pest or weed control at 125 g/ha: 125 g ai/ha
Method in brief: as §1

[5] = system: pigweed (Amaranthus retroflexus); conditions: scale 0 to 100, read-out: Plant response rating, Pigweed; for pest or weed control at 16 g/ha: 16 g ai/ha; for pest or weed control at 31 g/ha: 31 g ai/ha; for pest or weed control at 62 g/ha: 62 g ai/ha; for pest or weed control at 125 g/ha: 125 g ai/ha
Method in brief: as §1

[6] = system: windgrass (Apera spica-venti); conditions: scale 0 to 100, read-out: Plant response rating, Windgrass; for pest or weed control at 16 g/ha: 16 g ai/ha; for pest or weed control at 62 g/ha: 62 g ai/ha; for pest or weed control at 125 g/ha: 125 g ai/ha
Method in brief: as §1

[7] = system: winter wheat (Triticum aestivum); conditions: scale 0 to 100, read-out: Plant response rating, Wheat, Winter; for plant injury at 16 g/ha: 16 g ai/ha; for plant injury at 62 g/ha: 62 g ai/ha; for plant injury at 125 g/ha: 125 g ai/ha
Method in brief: as §1

[8] = system: lambsquarters (Chenopodium album); conditions: scale 0 to 100, read-out: Plant response rating, Lambsquarters; for pest or weed control at 16 g/ha: 16 g ai/ha; for pest or weed control at 31 g/ha: 31 g ai/ha; for pest or weed control at 62 g/ha: 62 g ai/ha; for pest or weed control at 125 g/ha: 125 g ai/ha
Method in brief: as §1

[9] = system: bluegrass (annual bluegrass, Poa annua); conditions: scale 0 to 100, read-out: Plant response rating, Bluegrass; for pest or weed control at 16 g/ha: 16 g ai/ha; for pest or weed control at 31 g/ha: 31 g ai/ha; for pest or weed control at 62 g/ha: 62 g ai/ha; for pest or weed control at 125 g/ha: 125 g ai/ha
Method in brief: as §1

kochia (Kochia scoparia) = conditions: Bassia scoparia, scale 0 to 100, read-out: Plant response rating, Kochia; for pest or weed control at 16 g/ha: 16 g ai/ha; for pest or weed control at 31 g/ha: 31 g ai/ha; for pest or weed control at 62 g/ha: 62 g ai/ha; for pest or weed control at 125 g/ha: 125 g ai/ha
Method in brief: as §1

wild oat (Avena fatua) = conditions: scale 0 to 100, read-out: Plant response rating, Oat, Wild; for pest or weed control at 16 g/ha: 16 g ai/ha; for pest or weed control at 31 g/ha: 31 g ai/ha; for pest or weed control at 62 g/ha: 62 g ai/ha; for pest or weed control at 125 g/ha: 125 g ai/ha
Method in brief: as §1

[10] = post-emergence, 31 g ai/ha, Postemergence

FC(F)c1cc(-c2ccccc2Oc2ncc(Br)cn2)no1 [Compound 62, 5-bromo-2-[2-[5-(difluoromethyl)-3-isoxazolyl]phenoxy]pyrimidine]
90%: pest or weed control at 125 g/ha ([1]; pre-emergence, Preemergence) | pest or weed control at 62 g/ha ([4]; post-emergence, Postemergence) | pest or weed control at 16 g/ha ([5]; post-emergence, Postemergence) | pest or weed control at 31 g/ha ([5]; post-emergence, Postemergence) | pest or weed control at 62 g/ha (kochia (Kochia scoparia); post-emergence, Postemergence)
25%: pest or weed control at 16 g/ha ([1]; post-emergence, Postemergence) | pest or weed control at 16 g/ha ([4]; pre-emergence, Preemergence) | pest or weed control at 31 g/ha (wild oat (Avena fatua); post-emergence, Postemergence)
65%: pest or weed control at 125 g/ha ([3]; pre-emergence, Preemergence) | pest or weed control at 16 g/ha ([4]; post-emergence, Postemergence) | pest or weed control at 125 g/ha ([6]; post-emergence, Postemergence) | pest or weed control at 16 g/ha (kochia (Kochia scoparia); post-emergence, Postemergence)
70%: pest or weed control at 31 g/ha ([4]; post-emergence, Postemergence)
75%: pest or weed control at 125 g/ha ([3]; post-emergence, Postemergence) | pest or weed control at 16 g/ha ([8]; post-emergence, Postemergence) | pest or weed control at 125 g/ha ([9]; pre-emergence, Preemergence) | pest or weed control at 31 g/ha (kochia (Kochia scoparia); post-emergence, Postemergence)
60%: pest or weed control at 125 g/ha ([9]; post-emergence, Postemergence) | pest or weed control at 125 g/ha (wild oat (Avena fatua); post-emergence, Postemergence)
5%: plant injury at 16 g/ha ([2]; post-emergence, Postemergence) | plant injury at 62 g/ha ([2]; pre-emergence, Preemergence) | plant injury at 125 g/ha ([2]; pre-emergence, Preemergence) | pest or weed control at 16 g/ha ([3]; pre-emergence, Preemergence) | plant injury at 125 g/ha ([7]; pre-emergence, Preemergence) | pest or weed control at 31 g/ha ([9]; pre-emergence, Preemergence) | pest or weed control at 31 g/ha (kochia (Kochia scoparia); pre-emergence, Preemergence)
20%: plant injury at 62 g/ha ([2]; post-emergence, Postemergence) | pest or weed control at 31 g/ha [6, 10] | plant injury at 31 g/ha [7, 10] | pest or weed control at 125 g/ha (wild oat (Avena fatua); pre-emergence, Preemergence)
85%: pest or weed control at 31 g/ha ([8]; pre-emergence, Preemergence) | pest or weed control at 62 g/ha (kochia (Kochia scoparia); pre-emergence, Preemergence)
55%: pest or weed control at 125 g/ha ([1]; post-emergence, Postemergence) | pest or weed control at 62 g/ha ([9]; post-emergence, Postemergence)
30%: pest or weed control at 31 g/ha ([3]; post-emergence, Postemergence) | pest or weed control at 62 g/ha ([6]; post-emergence, Postemergence) | plant injury at 62 g/ha ([7]; post-emergence, Postemergence)
35%: pest or weed control at 31 g/ha ([1]; post-emergence, Postemergence) | plant injury at 125 g/ha ([2]; post-emergence, Postemergence) | plant injury at 125 g/ha ([7]; post-emergence, Postemergence) | pest or weed control at 16 g/ha ([8]; pre-emergence, Preemergence) | pest or weed control at 31 g/ha ([9]; post-emergence, Postemergence) | pest or weed control at 62 g/ha (wild oat (Avena fatua); post-emergence, Postemergence)
100%: pest or weed control at 125 g/ha ([4]; post-emergence, Postemergence) | pest or weed control at 125 g/ha ([4]; pre-emergence, Preemergence) | pest or weed control at 31 g/ha ([5]; pre-emergence, Preemergence) | pest or weed control at 62 g/ha ([5]; pre-emergence, Preemergence) | pest or weed control at 125 g/ha ([5]; pre-emergence, Preemergence) | pest or weed control at 125 g/ha ([8]; pre-emergence, Preemergence) | pest or weed control at 125 g/ha (kochia (Kochia scoparia); pre-emergence, Preemergence)
40%: pest or weed control at 62 g/ha ([3]; post-emergence, Postemergence) | pest or weed control at 31 g/ha ([4]; pre-emergence, Preemergence)
15%: pest or weed control at 16 g/ha ([3]; post-emergence, Postemergence) | pest or weed control at 31 g/ha ([3]; pre-emergence, Preemergence) | pest or weed control at 62 g/ha ([3]; pre-emergence, Preemergence) | pest or weed control at 16 g/ha (wild oat (Avena fatua); post-emergence, Postemergence) | pest or weed control at 62 g/ha (wild oat (Avena fatua); pre-emergence, Preemergence)
95%: pest or weed control at 62 g/ha ([4]; pre-emergence, Preemergence) | pest or weed control at 62 g/ha ([5]; post-emergence, Postemergence) | pest or weed control at 125 g/ha ([5]; post-emergence, Postemergence) | pest or weed control at 16 g/ha ([5]; pre-emergence, Preemergence) | pest or weed control at 31 g/ha ([8]; post-emergence, Postemergence) | pest or weed control at 62 g/ha ([8]; post-emergence, Postemergence) | pest or weed control at 125 g/ha ([8]; post-emergence, Postemergence) | pest or weed control at 62 g/ha ([8]; pre-emergence, Preemergence) | pest or weed control at 125 g/ha (kochia (Kochia scoparia); post-emergence, Postemergence)
45%: pest or weed control at 62 g/ha ([1]; post-emergence, Postemergence)
50%: pest or weed control at 62 g/ha ([1]; pre-emergence, Preemergence) | pest or weed control at 62 g/ha ([6]; pre-emergence, Preemergence) | pest or weed control at 125 g/ha ([6]; pre-emergence, Preemergence)
0%: pest or weed control at 16 g/ha ([1]; pre-emergence, Preemergence) | pest or weed control at 31 g/ha ([1]; pre-emergence, Preemergence) | plant injury at 16 g/ha ([2]; pre-emergence, Preemergence) | plant injury at 31 g/ha ([2]; pre-emergence, Preemergence) | pest or weed control at 16 g/ha ([6]; pre-emergence, Preemergence) | plant injury at 16 g/ha ([7]; pre-emergence, Preemergence) | plant injury at 62 g/ha ([7]; pre-emergence, Preemergence) | pest or weed control at 16 g/ha ([9]; pre-emergence, Preemergence) | pest or weed control at 16 g/ha (kochia (Kochia scoparia); pre-emergence, Preemergence) | pest or weed control at 16 g/ha (wild oat (Avena fatua); pre-emergence, Preemergence)
10%: plant injury at 31 g/ha ([2]; post-emergence, Postemergence) | pest or weed control at 16 g/ha ([6]; post-emergence, Postemergence) | plant injury at 16 g/ha ([7]; post-emergence, Postemergence) | pest or weed control at 16 g/ha ([9]; post-emergence, Postemergence) | pest or weed control at 62 g/ha ([9]; pre-emergence, Preemergence) | pest or weed control at 31 g/ha (wild oat (Avena fatua); pre-emergence, Preemergence)
